Test results from ChEMBL document CHEMBL5537136 (J Med Chem, 2024).
Calls of active or inactive are those of the source. The rule behind the calls is not given here.

What was measured:
[1] = biological target: T1, Protein mono-ADP-ribosyltransferase TIPARP (Homo sapiens) (UniProt Q7Z3E1); experiment: Inhibition of PARP7 (unknown origin) at 100 nM measured after 1 hr incubation by microplate reader assay relative to control
T1 sequence (whole entry): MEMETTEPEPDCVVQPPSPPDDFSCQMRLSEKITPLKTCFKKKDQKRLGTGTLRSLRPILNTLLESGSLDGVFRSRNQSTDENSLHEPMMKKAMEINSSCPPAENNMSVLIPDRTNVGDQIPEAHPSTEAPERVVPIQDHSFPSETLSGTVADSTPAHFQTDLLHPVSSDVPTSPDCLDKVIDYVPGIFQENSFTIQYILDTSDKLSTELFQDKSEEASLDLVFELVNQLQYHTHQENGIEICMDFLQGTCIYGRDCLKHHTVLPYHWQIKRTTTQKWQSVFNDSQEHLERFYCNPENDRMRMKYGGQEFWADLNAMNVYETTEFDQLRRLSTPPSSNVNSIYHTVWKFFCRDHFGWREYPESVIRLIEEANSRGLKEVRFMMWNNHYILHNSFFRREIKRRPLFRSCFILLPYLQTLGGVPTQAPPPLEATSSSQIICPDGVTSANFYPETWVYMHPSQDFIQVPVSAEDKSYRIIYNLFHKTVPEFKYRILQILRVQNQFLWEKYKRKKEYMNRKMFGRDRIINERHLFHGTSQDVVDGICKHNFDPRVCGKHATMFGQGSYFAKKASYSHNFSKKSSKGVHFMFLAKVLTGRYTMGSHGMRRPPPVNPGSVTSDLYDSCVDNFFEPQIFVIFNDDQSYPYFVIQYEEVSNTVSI

[2] = biological target: Poly [ADP-ribose] polymerase 1 (Homo sapiens, UniProt P09874); experiment: Inhibition of PARP1 (unknown origin) measured after 1 hr incubation by microplate reader assay
CT26 [3] = experiment: Antitumor activity against mouse CT26 cells implanted in immunodeficient Balb/c mouse assessed as inhibition of tumor growth at 25 mg/kg, ip qod measured after 10 days relative to control; assay type: functional; settings: CT26, 240 h, time 10 day, read-out: TGI
[4] = biological target: T2, Protein mono-ADP-ribosyltransferase TIPARP (Homo sapiens, UniProt Q7Z3E1); experiment: Inhibition of PARP7 (unknown origin) measured after 1 hr incubation by microplate reader assay
T2 sequence (Q7Z3E1 whole entry): T1 sequence (whole entry)

[5] = Permeability across basolateral to apical side in human Caco-2 cells; assay type: ADME, cell-based
Cytochrome P450 2D6 = Cytochrome P450 2D6 (Homo sapiens, UniProt P10635); experiment: Inhibition of CYP2D6 (unknown origin); assay type: ADME
[6] = Antiproliferative activity against mouse AML12 cells measured after 6 days incubation by MTT assay; assay type: toxicity, cell-based
CYP3A4/5 = CYP3A4/5 (Homo sapiens, UniProt P08684+P20815); experiment: Inhibition of CYP3A4/5 (unknown origin); assay type: ADME, protein assay
[7] = Oral bioavailability in ICR mouse; assay type: ADME, organism-based; settings: in vivo
[8] = Permeability across apical to basolateral side in human Caco-2 cells; assay type: ADME, cell-based
CT26 [9] = experiment: Antitumor activity in immunocompetent mouse CT26 cell bearing mouse model assessed as tumor growth inhibition at 100 mg/kg, IG treated twice a day measured after 14 days relative to control; assay type: functional; settings: CT26, po, 336 h, time 14 day, read-out: TGI
[10] = Clearance in ICR mouse; assay type: ADME; settings: in vivo
CT26 [11] = experiment: Antitumor activity in immunocompetent mouse CT26 cell bearing Balb/c mouse model assessed as induction of IFN-beta mRNA expression in tumor tissue at 100 mg/kg, IG treated twice a day measured after 14 days by quantitative real-time PCR analysis; assay type: functional, organism-based; settings: time 14.0 day
Cytochrome P450 2C9 = Cytochrome P450 2C9 (Homo sapiens, UniProt P11712); experiment: Inhibition of CYP2C9 (unknown origin); assay type: ADME
Cytochrome P450 2C9, sequence (P11712 whole entry): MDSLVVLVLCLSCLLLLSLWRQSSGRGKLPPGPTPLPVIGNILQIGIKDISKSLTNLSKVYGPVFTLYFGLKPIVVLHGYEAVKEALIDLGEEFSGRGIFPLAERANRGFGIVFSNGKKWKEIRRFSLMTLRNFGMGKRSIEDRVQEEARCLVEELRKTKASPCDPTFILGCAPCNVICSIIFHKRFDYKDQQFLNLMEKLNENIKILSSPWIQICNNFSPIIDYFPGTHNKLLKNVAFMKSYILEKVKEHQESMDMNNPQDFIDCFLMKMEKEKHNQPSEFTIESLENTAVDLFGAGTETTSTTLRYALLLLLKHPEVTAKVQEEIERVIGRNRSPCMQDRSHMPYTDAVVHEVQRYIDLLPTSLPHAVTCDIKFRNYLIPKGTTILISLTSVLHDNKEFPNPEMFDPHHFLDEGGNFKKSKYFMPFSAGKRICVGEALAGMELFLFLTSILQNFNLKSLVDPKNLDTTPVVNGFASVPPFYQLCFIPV

Poly [ADP-ribose] polymerase 1, sequence (P09874 whole entry): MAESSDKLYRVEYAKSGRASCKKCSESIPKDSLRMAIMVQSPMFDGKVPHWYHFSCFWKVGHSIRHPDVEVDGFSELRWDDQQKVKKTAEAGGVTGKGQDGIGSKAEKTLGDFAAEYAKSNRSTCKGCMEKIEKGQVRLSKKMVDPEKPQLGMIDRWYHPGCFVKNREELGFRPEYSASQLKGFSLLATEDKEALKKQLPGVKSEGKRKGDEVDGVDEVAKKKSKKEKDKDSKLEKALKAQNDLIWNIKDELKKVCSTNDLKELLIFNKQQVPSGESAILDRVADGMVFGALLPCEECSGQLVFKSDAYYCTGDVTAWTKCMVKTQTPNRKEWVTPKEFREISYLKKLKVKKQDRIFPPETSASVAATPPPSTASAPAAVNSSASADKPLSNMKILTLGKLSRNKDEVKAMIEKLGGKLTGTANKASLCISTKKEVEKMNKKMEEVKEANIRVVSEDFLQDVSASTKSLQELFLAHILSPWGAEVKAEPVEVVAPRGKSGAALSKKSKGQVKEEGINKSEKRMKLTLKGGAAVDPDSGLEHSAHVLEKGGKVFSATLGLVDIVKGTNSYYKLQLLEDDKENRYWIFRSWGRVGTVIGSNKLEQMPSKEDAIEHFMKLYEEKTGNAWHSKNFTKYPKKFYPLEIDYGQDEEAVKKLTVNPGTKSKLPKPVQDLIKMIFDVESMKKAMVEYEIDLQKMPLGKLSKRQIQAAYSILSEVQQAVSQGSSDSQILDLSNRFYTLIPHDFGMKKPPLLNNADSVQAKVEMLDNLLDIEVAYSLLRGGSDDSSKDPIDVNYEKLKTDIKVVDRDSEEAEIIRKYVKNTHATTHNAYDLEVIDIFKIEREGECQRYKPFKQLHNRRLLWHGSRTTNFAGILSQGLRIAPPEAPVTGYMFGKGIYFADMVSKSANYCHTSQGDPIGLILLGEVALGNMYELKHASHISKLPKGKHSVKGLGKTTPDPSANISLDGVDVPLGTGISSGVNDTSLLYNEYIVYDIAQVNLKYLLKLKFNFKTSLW
Cytochrome P450 2D6, sequence (P10635 whole entry): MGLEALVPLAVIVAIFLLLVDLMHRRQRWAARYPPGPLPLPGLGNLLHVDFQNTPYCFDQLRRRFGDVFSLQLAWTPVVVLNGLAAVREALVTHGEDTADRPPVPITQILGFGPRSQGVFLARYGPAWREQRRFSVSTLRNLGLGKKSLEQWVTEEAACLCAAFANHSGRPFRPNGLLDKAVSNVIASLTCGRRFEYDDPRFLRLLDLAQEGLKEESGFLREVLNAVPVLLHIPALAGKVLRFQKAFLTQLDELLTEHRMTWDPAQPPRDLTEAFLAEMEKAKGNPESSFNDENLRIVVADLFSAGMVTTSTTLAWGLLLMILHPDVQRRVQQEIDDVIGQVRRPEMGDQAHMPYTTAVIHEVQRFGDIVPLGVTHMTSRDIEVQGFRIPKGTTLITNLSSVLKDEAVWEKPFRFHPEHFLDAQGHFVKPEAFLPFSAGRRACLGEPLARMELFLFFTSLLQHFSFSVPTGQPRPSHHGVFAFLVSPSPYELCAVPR

Structure (SMILES): CC(C(=O)N1CCN(c2ncc(C#N)cn2)CC1)n1cc2cccc(C(N)=O)c2n1 (stereo not drawn)
- inhibition [1]: 71%

Structure (SMILES): CC(C(=O)N1CCN(c2ncc(F)cn2)CC1)n1cc2cccc(C(N)=O)c2n1 (stereo not drawn)
- inhibition [1]: 64.5%

Structure (SMILES): COc1cnc(N2CCN(C(=O)C(C)n3cc4cccc(C(N)=O)c4n3)CC2)nc1 (stereo not drawn)
- inhibition [1]: 65.5%

Structure (SMILES): NC(=O)c1cccc2cn(CC(=O)N3CCN(c4ccc(C(F)(F)F)cn4)CC3)nc12
- inhibition [1]: 68.7%
- IC50 [2]: > 1300 nM

Structure (SMILES): O=c1[nH]cc(F)c(=O)[nH]1 [FLUOROURACIL]
- inhibition in vivo at 25 mg/kg (CT26 [3]): 65%

Structure (SMILES): NC(=O)c1cccc2cn(CC(=O)N3CCN(c4ccc5c(c4)OC(F)(F)O5)CC3)nc12
- inhibition [1]: 17.5%

Structure (SMILES): CC(C(=O)N1CCN(c2ccc3c(c2)OC(F)(F)O3)CC1)n1cc2cccc(C(N)=O)c2n1 (stereo not drawn)
- inhibition [1]: 13%

Structure (SMILES): CC(C(=O)N1CCN(c2ncc(Br)cn2)CC1)n1cc2cccc(C(N)=O)c2n1 (stereo not drawn)
- IC50 [4]: 22.3 nM
- inhibition [1]: 85.6%

Structure (SMILES): CC(C(=O)N1CCN(c2ccc(C(F)(F)F)cn2)CC1)n1cc2cccc(C(N)=O)c2n1 (stereo not drawn)
- IC50 [4]: 20 nM
- inhibition [1]: 91.2%

Structure (SMILES): NC(=O)c1cccc2cn(CCC(=O)N3CCN(c4ncc(C(F)(F)F)cn4)CC3)nc12
- inhibition [1]: 33.9%

Structure (SMILES): NC(=O)c1cccc2cn(CC(=O)N3CCN(c4ncc(C(F)(F)F)cn4)CC3)nc12
- IC50 [4]: 46 nM
- inhibition [1]: 89%
- IC50 [2]: > 1300 nM

Structure (SMILES): NC(=O)c1cccc2cn(C(F)C(=O)N3CCN(c4ncc(C(F)(F)F)cn4)CC3)nc12 (stereo not drawn)
- IC50 [4]: 122 nM
- inhibition [1]: 63%

Structure (SMILES): C[C@@H](COCCC(=O)N1CCN(c2ncc(C(F)(F)F)cn2)CC1)Nc1cn[nH]c(=O)c1C(F)(F)F [ATAMPARIB]
- Papp B→A [5]: 24 ×10⁻⁶ cm/s
- IC50 (Cytochrome P450 2D6): > 30000 nM
- IC50 at 6 days [6]: > 50000 nM
- IC50 (CYP3A4/5): > 30000 nM
- bioavailability [7]: 25.7%
- Papp A→B [8]: 4.1 ×10⁻⁶ cm/s
- inhibition in vivo at 100 mg/kg (CT26 [9]): 4%
- clearance [10]: 67 mL/min/kg
- Activity (CT26 [11]): inactive
- IC50 (Cytochrome P450 2C9): > 30000 nM

Structure (SMILES): CC(C(=O)N1CCN(c2ncccn2)CC1)n1cc2cccc(C(N)=O)c2n1 (stereo not drawn)
- inhibition [1]: 19.7%

Structure (SMILES): CC(C(=O)N1CCN(c2ncc(S(C)(=O)=O)cn2)CC1)n1cc2cccc(C(N)=O)c2n1 (stereo not drawn)
- inhibition [1]: 25.6%

Structure (SMILES): CCC(C(=O)N1CCN(c2ncc(C(F)(F)F)cn2)CC1)n1cc2cccc(C(N)=O)c2n1 (stereo not drawn)
- inhibition [1]: 63%

Structure (SMILES): Cc1cnc(N2CCN(C(=O)C(C)n3cc4cccc(C(N)=O)c4n3)CC2)nc1 (stereo not drawn)
- IC50 [4]: 62 nM
- inhibition [1]: 79.5%
